Experimental findings from ChEMBL document CHEMBL1147948, “Preparation of novel anthranilic acids as antibacterial agents: extensive evaluation of structural and physical properties on antibacterial activity and human serum albumin affinity” (Bioorg Med Chem Lett, 2007) are described below.

The structures appear in SMILES notation. ≈ marks a conversion by molar mass, not a printed value.

Experiment [1] deals with Staphylococcus aureus. The experiment can be described thus: Ratio of MIC of Staphylococcus aureus UC 9218 in presence of 10% serum to MIC of Staphylococcus aureus UC 9218 in absence of serum. Type of experiment: functional.
The test system of experiment [2] is Staphylococcus aureus. The experiment can be described thus: Antibacterial activity against Staphylococcus aureus UC 9218 in presence of 10% human serum. Type of experiment: functional.
For experiment [3], the system named is Staphylococcus aureus. The experiment can be described thus: Antibacterial activity against Staphylococcus aureus UC 9218. The format is functional.
Experiment [4] has as its system Staphylococcus aureus. Briefly: Antibacterial activity against Staphylococcus aureus UC 9218 in presence of 5% human serum. The format is functional.
The target of the next experiment is Albumin (Homo sapiens, UniProt P02768). Briefly: Binding affinity to human serum albumin.
Albumin, sequence (P02768 whole entry): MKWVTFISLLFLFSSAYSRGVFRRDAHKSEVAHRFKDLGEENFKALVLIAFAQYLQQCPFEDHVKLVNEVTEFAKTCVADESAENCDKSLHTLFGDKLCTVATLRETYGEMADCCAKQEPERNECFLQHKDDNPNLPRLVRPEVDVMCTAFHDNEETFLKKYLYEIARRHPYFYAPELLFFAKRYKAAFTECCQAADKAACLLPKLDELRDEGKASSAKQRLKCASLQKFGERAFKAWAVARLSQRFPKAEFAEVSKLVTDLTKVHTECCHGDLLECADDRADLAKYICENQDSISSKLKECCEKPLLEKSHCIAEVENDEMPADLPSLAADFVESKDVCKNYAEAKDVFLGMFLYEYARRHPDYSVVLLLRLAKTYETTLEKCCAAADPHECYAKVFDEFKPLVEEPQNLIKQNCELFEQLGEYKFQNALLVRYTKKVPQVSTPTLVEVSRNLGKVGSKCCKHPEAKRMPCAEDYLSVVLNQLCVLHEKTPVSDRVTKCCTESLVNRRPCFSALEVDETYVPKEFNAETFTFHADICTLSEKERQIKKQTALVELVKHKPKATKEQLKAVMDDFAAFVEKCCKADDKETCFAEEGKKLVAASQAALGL

Take `CC(C)CSc1ccc(C(=O)Nc2ccc(C#N)cc2C(=O)O)cn1`: the Ratio in the experiment on Staphylococcus aureus [1] is 16. Also, the MIC worked out at 8 µg/mL in the experiment on Staphylococcus aureus [2] and 0.5 µg/mL (≈ 1.41 µM) against Staphylococcus aureus [3].

`O=C(Nc1ccc(Br)cc1C(=O)O)c1ccc(SC2CCOCC2)nc1`: the Ratio with Staphylococcus aureus [1] was 32. The MIC is 32 µg/mL with Staphylococcus aureus [2] and 1 µg/mL (≈ 2.29 µM) in the experiment on Staphylococcus aureus [3].

On to `CSc1ccc(C(=O)Nc2ccc(C#N)cc2C(=O)O)cn1`, for which the Ratio with Staphylococcus aureus [1] was 8. For the same molecule, the MIC in the experiment on Staphylococcus aureus [2] was > 128 µg/mL; in the experiment on Staphylococcus aureus [3], 32 µg/mL (≈ 102 µM).

Take `N#Cc1ccc(NC(=O)c2ccc(SC3CCCC3)nc2)c(C(=O)O)c1`: the Ratio with Staphylococcus aureus [1] stood at 32. Also, the MIC was 16 µg/mL in the experiment with Staphylococcus aureus [2] and 0.5 µg/mL (≈ 1.36 µM) against Staphylococcus aureus [3].

Regarding `CCSc1ccc(C(=O)Nc2ccc(C#N)cc2C(=O)O)cn1`, in the experiment with Staphylococcus aureus [1], the Ratio was 16. Further, the MIC was 8 µg/mL in the experiment on Staphylococcus aureus [2] and 0.5 µg/mL (≈ 1.53 µM) with Staphylococcus aureus [3].

In the case of `O=C(Nc1ccc(Br)cc1C(=O)O)c1ccc(SC2CCCCC2)nc1`, the Ratio in the experiment with Staphylococcus aureus [1] amounted to 64. For the same molecule, the MIC in the experiment on Staphylococcus aureus [2] came out at 64 µg/mL; with Staphylococcus aureus [3], 1 µg/mL (≈ 2.3 µM).

With `CCCCCCSc1ccc(C(=O)Nc2ccc(C#N)cc2C(=O)O)cn1`, in the experiment with Staphylococcus aureus [1], the Ratio is 64. Besides, in the experiment with Staphylococcus aureus [2], the MIC stood at 8 µg/mL.

As to `CCCCC(C)Sc1ccc(C(=O)Nc2ccc(C#N)cc2C(=O)O)cn1` (stereo not given), the Ratio with Staphylococcus aureus [1] was 128. Further, the MIC with Staphylococcus aureus [2] worked out at 16 µg/mL.

As to `CCCCCCCCCSc1ccc(C(=O)Nc2ccc(C#N)cc2C(=O)O)cn1`, the Ratio with Staphylococcus aureus [1] is > 128. Besides, the MIC was > 128 µg/mL in the experiment on Staphylococcus aureus [2] and 1 µg/mL (≈ 2.35 µM) with Staphylococcus aureus [3].

For `CC(C)Sc1ccc(C(=O)Nc2ccc(Br)cc2C(=O)O)cn1`, in the experiment on Staphylococcus aureus [1], the Ratio was 32. Also, the MIC was determined as 32 µg/mL with Staphylococcus aureus [2] and 1 µg/mL (≈ 2.53 µM) in the experiment on Staphylococcus aureus [3].

Turning to `CC(C)(C)c1ccc(-c2ccc(NC(=O)c3cccc(S(=O)(=O)N4CCc5cc(Cl)ccc54)c3)c(C(=O)O)c2)cc1`, the MIC in the experiment with Staphylococcus aureus [2] is > 128 µg/mL; with Staphylococcus aureus [3], 16 µg/mL (≈ 27.2 µM); with Staphylococcus aureus [4] it was > 128 µg/mL.

For `CCCSc1ccc(C(=O)Nc2ccc(C#N)cc2C(=O)O)cn1`, the Ratio in the experiment on Staphylococcus aureus [1] amounted to 64. For the same molecule, the MIC was 32 µg/mL in the experiment with Staphylococcus aureus [2] and 0.5 µg/mL (≈ 1.46 µM) with Staphylococcus aureus [3].

As to `CC(C)Sc1ccc(C(=O)Nc2ccc(C#N)cc2C(=O)O)cn1`, the Ratio in the experiment on Staphylococcus aureus [1] is 16. The MIC was 16 µg/mL with Staphylococcus aureus [2] and 1 µg/mL (≈ 2.93 µM) against Staphylococcus aureus [3].

With `CCCCSc1ccc(C(=O)Nc2ccc(C#N)cc2C(=O)O)cn1`, the Ratio with Staphylococcus aureus [1] amounted to 64. Further, the MIC in the experiment with Staphylococcus aureus [2] was found to be 16 µg/mL.

At Albumin, `COCCOCCCSc1ccc(C(=O)Nc2ccc(C#N)cc2C(=O)O)cn1` yielded a Kd of 700 nM. For the same molecule, the Ratio with Staphylococcus aureus [1] amounted to 4. The MIC in the experiment on Staphylococcus aureus [2] was found to be 4 µg/mL; against Staphylococcus aureus [3] it was 1 µg/mL (≈ 2.41 µM).

With `N#Cc1ccc(NC(=O)c2ccc(SC3CCCCC3)nc2)c(C(=O)O)c1`, the Ratio with Staphylococcus aureus [1] was found to be 64. The MIC with Staphylococcus aureus [2] amounted to 32 µg/mL; with Staphylococcus aureus [3], 0.5 µg/mL (≈ 1.31 µM).

In the case of `CCCCCSc1ccc(C(=O)Nc2ccc(C#N)cc2C(=O)O)cn1`, the Ratio with Staphylococcus aureus [1] stood at 32. Moreover, the MIC with Staphylococcus aureus [2] worked out at 4 µg/mL.

In the case of `CCC(CC)Sc1ccc(C(=O)Nc2ccc(C#N)cc2C(=O)O)cn1`, in the experiment with Staphylococcus aureus [1], the Ratio worked out at 32. In the experiment with Staphylococcus aureus [2], the MIC came to 8 µg/mL.

For the molecule `CCCCCCSc1ccc(C(=O)Nc2ccc(Cl)cc2C(=O)O)cn1`, the Ratio in the experiment with Staphylococcus aureus [1] was determined as 512. In the experiment on Staphylococcus aureus [2], the minimum inhibitory concentration (MIC) worked out at 64 µg/mL.

Regarding `CCCCCCSc1ccc(C(=O)Nc2ccc(Br)cc2C(=O)O)cn1`, the Ratio with Staphylococcus aureus [1] is 512. Further, in the experiment with Staphylococcus aureus [2], the MIC was 64 µg/mL.

On to `CCCC(C)Sc1ccc(C(=O)Nc2ccc(C#N)cc2C(=O)O)cn1` (stereo not given), for which, in the experiment with Staphylococcus aureus [1], the Ratio is 128. In addition, the MIC in the experiment on Staphylococcus aureus [2] is 16 µg/mL.

With `CC(C)(C)c1ccc(-c2cncc(C(=O)Nc3ccc(C#N)cc3C(=O)O)c2)cc1`, the MIC with Staphylococcus aureus [2] and in the experiment with Staphylococcus aureus [4] was > 128 µg/mL throughout.

On to `N#Cc1ccc(NC(=O)c2ccc(SC3CCOCC3)nc2)c(C(=O)O)c1`, for which the Ratio with Staphylococcus aureus [1] came out at 32. In the experiment with Staphylococcus aureus [2], the MIC worked out at 4 µg/mL.

One may read the MIC as the lowest concentration that inhibits growth of the organism. By Kd is commonly meant the equilibrium constant for the complex coming apart. A higher Kd goes with lower affinity.
